Assay results taken from paper PMC8465942, “Cyano- and Ketone-Containing Selenoesters as Multi-Target Compounds against Resistant Cancers” (Cancers, 2021).
Like-named read-outs stand apart in the source and are kept apart here. Marks after values point to notes of the source that are not given here.

Key:
[1] = test system: Colo 320/MDR-LRP human colonic adenocarcinoma cell line; test: Cytotoxicity (MTT) on resistant Colo 320 cells; format: cell-based; details: for IC50: Homo sapiens, COLO 320, 24 h, MTT, read-out: Colo 320 (IC50 µM) Mean; for SI MRC-5/Colo 320: ratio IC50 non-tumour cells / IC50 cancer cells
Excerpt: (§1) Three cell lines have been used in this study: the doxorubicin-sensitive Colo 205 (CCL-222, ATCC, Manassas, VA, USA) human colonic adenocarcinoma cell line; the multidrug resistant Colo 320/MDR-LRP expressing P-gp (MDR1)-LRP (CCL-220.1, ATCC) human colonic adenocarcinoma cell line; and the MRC-5 human embryonal lung fibroblast cell line (CCL-171, ATCC). The colon adenocarcinoma cell lines were purchased from LGC Promochem (Teddington, UK), and the MRC-5 cell line was purchased from Sigma-Aldrich (Merck KGaA, Darmstadt, Germany). Their culture conditions are as follows: Colo 205 (CCL-222, ATCC) and Colo 320/MDR-LRP expressing P-gp (MDR1)-LRP (CCL-220.1, ATCC) human colon adenocarcinoma cell lines were cultured in RPMI 1640 medium, supplemented with 10% FBS, 2 mM L-glutamine, 1 mM Na-pyruvate, and […]. The cell lines were incubated at 37 °C, 5% CO2, and 95% air atmosphere. The semi-adherent human colon cancer cells were detached with a Trypsin-Versene (EDTA) solution for 5 min at 37 °C. MRC-5 human embryonal lung fibroblast cells were cultured in EMEM containing 4.5 g/L of glucose and supplemented with a non-essential amino acid mixture, a selection of vitamins, and 10% FBS. The cell lines were incubated at 37 °C, 5% CO2, and 95% air atmosphere.
(§2) The effects of increasing concentrations of the compounds on cell growth were tested in 96-well flat-bottomed microtiter plates. Moreover, 10^4 of human colonic adenocarcinoma cells in 100 μL of the medium (RPMI-1640) were added to each well, except for the medium control wells. The adherent human embryonic lung fibroblast cell line was seeded in the EMEM medium for 4 h before the assay. The two-fold serial dilutions of the compounds were made in a separate plate (0.19–100 μM), and then transferred to the plates containing the adherent corresponding cell line. Culture plates were incubated at 37 °C for 24 h. At the end of the incubation period, 20 μL of MTT (thiazolyl blue tetrazolium bromide) solution (from a 5 mg/mL stock solution) were added to each well. After incubation at 37 °C for 4 h, 100 μL of sodium dodecyl sulfate (SDS) solution (10% SDS in 0.01 M HCl) was added to each well, and the plates were further incubated at 37 °C overnight. Cell growth was determined by measuring the optical density (OD) at 540 nm (ref. 630 nm) with a Multiscan EX ELISA reader (Thermo Labsystems, Cheshire, WA, USA). Inhibition of cell growth was expressed as IC50 values, defined as the inhibitory dose that reduces the growth of the cells exposed to the tested compounds by 50%. IC50 values and the SD of triplicate experiments were calculated by using GraphPad Prism software version 5.00 for Windows, with a non-linear regression curve fit (GraphPad Software, San Diego, CA, USA; www.graphpad.com, accessed on 12 July 2021). Doxorubicin (from a 2 mg/mL stock solution, Teva Pharmaceuticals) was used as a positive control.
(§3) The selectivity indexes (SI) were calculated as the ratio of the IC50 value in the non-tumour cells and the IC50 in the cancer cell lines. The compound’s activity towards cancer cells is considered as strongly selective if the selectivity index (SI) value is higher than 6, moderately selective if 3 < SI < 6, slightly selective if 1 < SI < 3, and non-selective if SI is lower than 1 [16].

[2] = test system: Colo 205 human colonic adenocarcinoma cell line; test: Cytotoxicity (MTT) on sensitive Colo 205 cells; format: cell-based; details: for IC50: Homo sapiens, COLO 205, 24 h, MTT, read-out: Colo 205 (IC50 µM) Mean; for SI MRC-5/Colo 205: ratio IC50 non-tumour cells / IC50 cancer cells
Excerpt: as §1, §2, §3

[3] = Cytotoxicity (MTT) on normal MRC-5 fibroblasts; format: cell-based; details: human
Excerpt: as §1, §2

[4] = test system: MDR Colo 320 adenocarcinoma cells; test: Apoptosis induction (Annexin V-FITC / propidium iodide); format: cell-based, human; details: 20 µM
Description: The assay was carried out using an Annexin V-FITC Apoptosis Detection Kit Cat. No. PF 032 from Calbiochem (EMD Biosciences. Inc. La Jolla. CA), according to the manufacturer's instructions. […] The cell suspension was distributed into 1 mL aliquots (1 × 10^6 cells) into a 24-well microplate and incubated overnight at 37 °C, with 5% CO2. On the following day, the medium was removed and a fresh medium was added to the cells. The cells were incubated in the presence of Se-compounds for 3 h at 37 °C. […] After a 3 h induction period, the culture medium was removed, the cells were washed with PBS, and a fresh medium was added to the cells. The 24-well plates were incubated overnight at 37 °C, with 5% CO2. After the incubation, the supernatant was collected in a microfuge tube and 200 μL of 0.25 trypsin (Trypsin-Versene) was added to the wells until the cells detached from the surfaces of the wells. The cells were centrifuged at 2000× g for 2 min at room temperature, the supernatant was removed, and the cells were re-suspended in fresh serum-free medium. After this procedure, apoptosis assay was carried out according to the rapid protocol of the kit using Annexin V-FITC and propidium iodide staining. […] The data were analysed by FlowJo^TM software (BD Biosciences, San Jose, NJ, USA).

HaCaT cell line = test: Toxicity on HaCaT cells (IC10 used as dose); format: cell-based; details: Homo sapiens, concentration inhibiting 10% of the population, highest non-toxic concentration, read-out: Dose IC10
Description: The activity of selenoesters was tested on several cancer cell lines, including HepG2 (hepatocellular carcinoma, CCL-23TM, ATCC); HeLa (cervical adenocarcinoma, CCL-2TM, ATCC); B16 (skin melanoma, CCL-6322TM, ATCC); and a non-cancerous cell line, HDF (human dermal fibroblasts, Sigma-Aldrich). HepG2, HeLa, B16, and HDF cell lines were cultivated in EMEM medium supplemented with 10% FBS, 2 mM L-glutamine, and 1% penicillin-streptomycin mixture. The HaCaT cell line was cultivated in DMEM medium supplemented with 10% FBS and 1% penicillin-streptomycin mixture. All of the cells were cultivated in a CO2 incubator (5% CO2, 37 °C). Twice per week, the cell lines were passaged according to a standardized protocol with a trypsin-EDTA solution. […]
Wound healing activity of selenoesters was evaluated as the ability of the cells to migrate and close the gap created on the monolayer of human keratinocytes (HaCaT cell line). The tested substances were applied in the highest possible non-toxic concentration (IC10, concentration inhibiting 10% of the population). In general, ketone-selenoesters were more toxic (except K4 and K1) than cyano-selenoesters (except N4); therefore, they were applied at lower doses (0.17–0.30 µM) when compared to cyanoselenoesters (0.36–0.64 µM). Compounds K1, K4, and N4 were applied at a concentration of 0.30, 0.46, and 0.20 µM, respectively. As could be seen in Table 8, all ketone-selenoesters stimulated wound healing more effectively in comparison to both untreated control (p < 0.0000005) and allantoin (p < 0.00005). […] Only samples N1, N2, N4, and N7 closed effectively the damaged wound in 24 h, with the gap closure around 70%.

[5] = test system: HeLa (cervical adenocarcinoma); test: Cytotoxicity on HeLa cells; format: cell-based; details: Homo sapiens
Description: (§4) The activity of selenoesters was tested on several cancer cell lines, including HepG2 (hepatocellular carcinoma, CCL-23TM, ATCC); HeLa (cervical adenocarcinoma, CCL-2TM, ATCC); B16 (skin melanoma, CCL-6322TM, ATCC); and a non-cancerous cell line, HDF (human dermal fibroblasts, Sigma-Aldrich). HepG2, HeLa, B16, and HDF cell lines were cultivated in EMEM medium supplemented with 10% FBS, 2 mM L-glutamine, and 1% penicillin-streptomycin mixture. The HaCaT cell line was cultivated in DMEM medium supplemented with 10% FBS and 1% penicillin-streptomycin mixture. All of the cells were cultivated in a CO2 incubator (5% CO2, 37 °C). Twice per week, the cell lines were passaged according to a standardized protocol with a trypsin-EDTA solution.
as §3

B16 (skin melanoma) = test: Cytotoxicity on B16 cells; format: cell-based, murine; details: Mus musculus
Description: as §4, §3

[6] = test system: resistant Colo 320 colon adenocarcinoma cells expressing the ABCB1 transporter; test: Checkerboard combination assay with doxorubicin; format: cell-based, human; details: starting conc. 10 µM
Description: A checkerboard microplate method was applied to study the effect of drug interactions between the selenocompounds and the chemotherapeutic drug doxorubicin on resistant Colo 320 colon adenocarcinoma cells expressing the ABCB1 transporter. Results were expressed in terms of the combination index (CI) values at 50% growth inhibition (ED50), which were determined by using CompuSyn software to plot 4 or 5 data points for each ratio.
To perform the experiment, the dilutions of doxorubicin were made in a horizontal direction in 100 µL, and the dilutions of the Se-compounds were made vertically in the microtiter plate in a volume of 50 µL. The cells were re-suspended in the culture medium and distributed into each well in 50 µL portions containing 6000 cells. The plates were incubated for 72 h at 37 °C in a CO2 incubator. The cell growth rate was determined after MTT staining. At the end of the incubation period, 20 μL of MTT solution was added to each well. After incubation at 37 °C for 4 h, 100 μL of SDS was added to each well and the plates were further incubated at 37 °C overnight. The optical density (OD) was measured at 540/630 nm with the Multiscan EX ELISA reader.

[7] = test system: HepG2 (hepatocellular carcinoma); test: Cytotoxicity on HepG2 cells; format: cell-based, human; details: ratio IC50 non-tumour cells / IC50 cancer cells
[8] = test system: HepG2 (hepatocellular carcinoma); test: Cytotoxicity on HepG2 cells; format: cell-based; details: Homo sapiens
Description: as §4, §3

[9] = test system: HeLa (cervical adenocarcinoma); test: Cytotoxicity on HeLa cells; format: cell-based, human; details: ratio IC50 non-tumour cells / IC50 cancer cells
[10] = molecular target: ABCB1 (P-glycoprotein) in Colo 320 colonic adenocarcinoma cells (Homo sapiens, UniProt P08183); test: ABCB1 inhibition, rhodamine 123 accumulation by flow cytometry; details: 0.2 µM
Description: The inhibition of the ABCB1 multidrug efflux pump ABCB1 by the tested compounds was evaluated using flow cytometry, measuring the retention of rhodamine 123 by ABCB1 (P-glycoprotein) in Colo 320 colonic adenocarcinoma cells. Briefly, the cell number of colonic adenocarcinoma cells were adjusted to 2 × 10^6 cells/mL, re-suspended in serum-free RPMI-1640 medium in the case of colonic adenocarcinoma cells, and distributed in 0.5 mL aliquots into Eppendorf centrifuge tubes. The tested compounds were added at different concentrations (0.2 and 2 µM; from 1 and 10 mM stock solutions, respectively), and the samples were incubated for 10 min at room temperature. Tariquidar was applied as the positive control (0.2 µM final concentration), and DMSO was used as the solvent control (at 2 v/v%). Next, 10 µL (5.2 µM final concentration) of the fluorochrome rhodamine 123 (Sigma, St. Louis, MO, USA) was added to the samples and the cells were incubated for 20 min at 37 °C. After the incubation period, the cells were washed twice and re-suspended in 0.5 mL PBS for analysis. The fluorescence of the gated cell population was measured with a Partec CyFlow® flow cytometer (Partec, Münster, Germany). The percentage of the mean fluorescence intensity was calculated for the treated MDR cells as compared with the untreated cells. The results were obtained from a representative flow cytometry experiment in which at least 20,000 individual cells of the overall population were evaluated for the rhodamine 123 retained inside the cells. The fluorescence activity ratio (FAR) was calculated based on the following equation, which relates the measured fluorescence values: FAR=Colo320treated / Colo320control/Colo205treated / Colo205control
The parameters evaluated from flow cytometry experiments were: Forward Scatter Count (FSC, provides information about cell size); Side Scatter Count (SSC, proportional to cell granularity or internal complexity); FL-1 (Mean fluorescence of the cells), and Fluorescence Activity Ratio (FAR), which was calculated by the equation given above.

Chain of ABCB1 (P-glycoprotein) in Colo 320 colonic adenocarcinoma cells (P08183 whole entry): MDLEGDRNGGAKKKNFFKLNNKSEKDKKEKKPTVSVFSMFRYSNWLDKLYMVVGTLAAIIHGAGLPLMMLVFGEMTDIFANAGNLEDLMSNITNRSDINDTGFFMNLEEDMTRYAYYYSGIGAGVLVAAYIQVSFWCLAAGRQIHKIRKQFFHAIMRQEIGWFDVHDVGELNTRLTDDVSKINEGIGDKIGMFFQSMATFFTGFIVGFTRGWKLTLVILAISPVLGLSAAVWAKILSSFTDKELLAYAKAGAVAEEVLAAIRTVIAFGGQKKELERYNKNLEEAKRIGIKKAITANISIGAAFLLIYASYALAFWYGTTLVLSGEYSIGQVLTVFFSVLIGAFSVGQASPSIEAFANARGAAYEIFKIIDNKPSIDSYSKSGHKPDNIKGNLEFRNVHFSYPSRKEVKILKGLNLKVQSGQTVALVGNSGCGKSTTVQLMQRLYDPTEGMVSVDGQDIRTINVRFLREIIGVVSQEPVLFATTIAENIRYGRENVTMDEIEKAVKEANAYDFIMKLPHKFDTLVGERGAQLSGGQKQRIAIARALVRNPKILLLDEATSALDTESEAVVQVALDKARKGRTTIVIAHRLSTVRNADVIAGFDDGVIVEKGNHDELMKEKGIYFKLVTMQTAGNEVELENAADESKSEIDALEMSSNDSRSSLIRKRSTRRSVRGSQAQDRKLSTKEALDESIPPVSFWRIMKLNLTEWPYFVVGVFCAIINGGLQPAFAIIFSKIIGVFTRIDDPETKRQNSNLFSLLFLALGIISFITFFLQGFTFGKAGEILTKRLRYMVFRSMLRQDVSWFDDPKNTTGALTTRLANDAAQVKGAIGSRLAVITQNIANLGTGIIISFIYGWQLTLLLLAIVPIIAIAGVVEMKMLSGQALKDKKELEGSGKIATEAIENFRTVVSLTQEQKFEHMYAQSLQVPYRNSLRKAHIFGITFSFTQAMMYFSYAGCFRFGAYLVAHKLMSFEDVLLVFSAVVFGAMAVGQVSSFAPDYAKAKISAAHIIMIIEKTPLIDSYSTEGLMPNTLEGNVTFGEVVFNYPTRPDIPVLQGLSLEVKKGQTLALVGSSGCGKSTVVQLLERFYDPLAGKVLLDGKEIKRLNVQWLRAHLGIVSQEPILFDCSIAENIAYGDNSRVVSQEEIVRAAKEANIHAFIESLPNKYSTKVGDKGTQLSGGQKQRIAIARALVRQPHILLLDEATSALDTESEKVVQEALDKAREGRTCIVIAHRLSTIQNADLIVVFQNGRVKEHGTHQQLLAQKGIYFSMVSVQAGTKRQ

COc1cccc2c1C(=O)c1c(O)c3c(c(O)c1C2=O)C[C@@](O)(C(=O)CO)C[C@@H]3O[C@H]1C[C@H](N)[C@H](O)[C@H](C)O1 [Dox., doxorubicin, reference compound]
IC50 [1]: 7.61 µM
SI MRC-5/Colo 320 [1]: 0.36
IC50 [2]: 3.46 µM
SI MRC-5/Colo 205 [2]: 0.79
IC50 at 24 h ([3]; MRC-5 embryonal lung fibroblast cells, 24 h, MTT, read-out: MRC-5 (IC50 µM) Mean): 2.73 µM

c1ccc2c(c1)Nc1c(ccc3ccccc13)S2 [M627, 12H-benzo(α)phenothiazine, reference compound]
Cell Death (%) Treated Sample-Untreated Sample ([4]; positive control): 0.00%
Early Apoptosis (%) Treated Sample-Untreated Sample ([4]; positive control): 13.3%
Late Apoptosis (%) Treated Sample-Untreated Sample ([4]; positive control): 36.1%
Total Apoptotic Events (Early + Late, %) ([4]; positive control): 49.4%
Apoptosis Quotient (%) ([4]; reference): 100%

N#CC[Se]C(=O)c1cccc(C(F)(F)F)c1 [N5, Se-(Cyanomethyl) 3-(Trifluoromethyl)benzoselenoate]
IC10 (HaCaT cell line): 600 nM
IC50 [5]: 2.5 µM
IC50 (B16 (skin melanoma)): 1.4 µM
IC50 [1]: 5.22 µM
SI MRC-5/Colo 320 [1]: >6 *
Type of Interaction ([6]; ratio 1.2:1): Strong antagonism
Type of Interaction ([6]; ratio 2.4:1): Strong antagonism
Type of Interaction ([6]; ratio 4.8:1): Slight antagonism
Type of Interaction ([6]; ratio 9.6:1): Additive effect
Type of Interaction ([6]; ratio 19.2:1): Slight antagonism
Type of Interaction ([6]; ratio 38.4:1): Moderate antagonism
SI MRC-5/HepG2 [7]: >6 *
IC50 [8]: 9.8 µM
SI MRC-5/HeLa [9]: >6 *
IC50 [2]: 2.1 µM
SI MRC-5/Colo 205 [2]: >6 *
IC50 at 24 h [3]: > 100 µM

COc1cc2c(cc1OC)CN(CCc1ccc(NC(=O)c3cc(OC)c(OC)cc3NC(=O)c3cnc4ccccc4c3)cc1)CC2 [Tariquidar, reference compound]
FSC (Forward Scatter Count) [10]: 1957
SSC (Side Scatter Count) [10]: 1074
FAR (fluorescence activity ratio) ([10]; rhodamine 123, FAR above 2 considered effective): 28.04
